Measured values from patent publication US20050038093A1, “Treating diabetic retinopathy with angiotensin II receptor blockers” (Boehringer Ingelheim International GmbH, priority 2003, published 2005).

Experiments:
PDGF-B mRNA = test: Quantitative reverse transcription PCR of PDGF-B mRNA in cultured retinal pericytes; format: cell-based, bovine; details: 10^-7 M angiotensin II, 4 hours; for inhibition of angiotensin II induced up-regulation of PDGF mRNA levels: 10^-7 M telmisartan or 1 mM NAC
Procedure: To investigate the effects of angiotensin II on PDGF-B gene expression in cultured retinal pericytes, poly(A)^+ RNAs were isolated from cells treated with or without 10^−7 M angiotensin II in the presence or absence of 10^−7 M telmisartan or 1 mM NAC for 4 hours, and analyzed by RT-PCR as described in Yamagishi et al, Kidney Int 63:464, 2003. The amounts of poly(A)^+ RNA templates (about 30 ng) and cell cycle numbers for amplification (28 cycles for PDGF-B gene and 22 cycles for β-actin gene) were chosen in quantitative ranges were reactions proceeded linearly, which had been determined by plotting signal intensities as functions of the template amounts and cell cycle numbers as described in Yamagishi et al, J Biol Chem 277:20309, 2002. Sequences of primers for detecting bovine β-actin mRNAs were the same as described in Okamoto et al, FASEB J 16:1928, 2002.

[1] = test system: pericytes isolated from bovine retina; test: Measurement of reactive oxygen species in pericytes; format: cell-based; details: for inhibition of angiotensin II-induced increase in the generation of reactive oxygen species in pericytes: 10^-7 M telmisartan, 10^-7 or 10^-6 M angiotensin II
Procedure: (§1) Pericytes were isolated from bovine retina and maintained in Dulbecco's Eagle's medium supplemented with 20% of fetal bovine serum (FBS) as described in Yamagishi et al, Circulation 87:1969, 1993.
Angiotensin II treatment was carried out in medium containing 2% FBS. Pericytes were treated with or without 10^−7 or 10^−6 M angiotensin II in the presence or absence of 10^−7 M telmisartan for 24 hours. Then the intracellular formation of reactive oxygen species was detected as described in Yamagishi et al, A J Biol Chem 276:25096, 2001 by using the fluorescent probe CM-H2DCFDA (Molecular Probes Inc, Eugene, Oreg.).

pericytes = test: Measurement of [3H]thymidine incorporation in pericytes; format: cell-based, bovine; details: 10^-7 M angiotensin, 24 hours
Procedure: as §1
Pericytes were treated with or without 10^−7 M angiotensin in the presence or absence of 1 mM N-acetylcystein (NAC) for 24 hours, and then [^3H]thymidine incorporation in cells was determined as described in Yamagishi et al, FEBS Lett 384:103, 1996.

VEGF mRNA = test: Quantitative reverse transcription PCR of VEGF mRNA in pericytes; format: cell-based, bovine; details: 10^-7 M angiotensin II, 4 hours; for inhibition of angiotensin II-induced up-regulation of VEGF mRNA levels in pericytes: 10^-7 M telmisartan or 1 mM NAC
Procedure: Sequences and primers for detecting VEGF and β-actin mRNAs are described in Yamagishi et al, J Biol Chem 272:8723, 1997.
Poly(A)^+ RNAs were isolated from cells treated with or without 10^−7 M angiotensin II in the presence or absence of 10^−7 M telmisartan or 1 mM NAC for 4 hours, and analyzed by quantitative reverse transcription PCR (RT-PCR) as described in Yamagishi et al, Diabetologia 41:1435, 1998. The amounts of poly(A)^+ RNA templates (about 30 ng) and cell cycle numbers for amplification (28 cycles for VEGF gene and 22 cycles for β-actin gene) were chosen in quantitative ranges were reactions proceeded linearly, which had been determined by plotting signal intensities as functions of the template amounts and cell cycle numbers as described in Yamagishi et al, J Biol Chem 277:20309, 2002.
It has been reported that there exist five alternatively spliced products from the single VEGF gene. They are designated as VEGF121, VEGF145, VEGF165 VEGF189, and VEGF206. Since Northern blot analysis can not clearly discriminate these five mRNA products, we employed a more sensitive semi-quantitative RT-PCR technique as described in Okamoto et al, FASEB J 16:1928, 2002. In these experiments, cDNA products of 486 and 618 base pairs length are amplified from mRNAs for VEGF121 and VEGF165, respectively. […] The VEGF mRNA level was about 1.5 fold higher than the basal level when exposed to 10^−7 M angiotensin II.

[2] = IDNT study (Lewis et al, 2001); cited from earlier work
[3] = EUCLID study, cited from earlier work

CC(=O)N[C@@H](CS)C(=O)O [NAC, N-acetylcystein]
inhibition of angiotensin II induced up-regulation of PDGF mRNA levels (PDGF-B mRNA): significantly inhibit
reversal of angiotensin II-induced increase in generation of reactive oxygen species by antioxidant ([1]; added during treatment of pericytes with angiotensin II): reverses the increase
prevention of angiotensin II-induced decrease in DNA synthesis in pericytes (pericytes; 1 mM NAC): significantly prevented
inhibition of angiotensin II-induced up-regulation of VEGF mRNA levels in pericytes (VEGF mRNA): completely inhibit

CCCCC1=NC2(CCCC2)C(=O)N1Cc1ccc(-c2ccccc2-c2nnn[nH]2)cc1 [irbesartan]
protection against the progression of nephropathy due to type II diabetes [2]: effective

NCCCC[C@H](N[C@@H](CCc1ccccc1)C(=O)O)C(=O)N1CCC[C@H]1C(=O)O [lisinopril]
risk of progression to proliferative retinopathy [3]: significantly reduced
reduction of the risk of progression of retinopathy ([3]; retinopathy not a primary endpoint): approximately 50%

CCCc1nc2c(C)cc(-c3nc4ccccc4n3C)cc2n1Cc1ccc(-c2ccccc2C(=O)O)cc1 [telmisartan]
inhibition of angiotensin II induced up-regulation of PDGF mRNA levels (PDGF-B mRNA): significantly inhibit
effect of compound alone on generation of reactive oxygen species ([1]; 10^-7 M telmisartan without angiotensin II, 24 hours): did not affect
inhibition of angiotensin II-induced increase in the generation of reactive oxygen species in pericytes ([1]; 24 hours): inhibit
inhibition of angiotensin II-induced increase in the generation of reactive oxygen species in pericytes ([1]; 24 hours, listed as Telmisartan): completely inhibit
inhibition of angiotensin II-induced up-regulation of VEGF mRNA levels in pericytes (VEGF mRNA): completely inhibit

angiotensin II (DRVYIHPF; Angiotensin-2; UniProt P01019 25-32, looked up) [stimulus used on pericytes]
PDGF-B mRNA level relative to basal level (PDGF-B mRNA): about 5 fold
increase of intracellular generation of reactive oxygen species ([1]; 10^-6 M angiotensin II, 24 hours, medium with 2% FBS): about 1.3 fold
effect on DNA synthesis in pericytes ([3H]thymidine incorporation) (pericytes): significantly inhibited
VEGF mRNA level relative to basal level (VEGF mRNA): about 1.5 fold
